Measured values reported in patent US20080038809A1, “ISOLATED LECTIN POLYPEPTIDES CONSISTING OF TRUNCATED […] UDP-GalNAc:POLYPEPTIDE N- ACETYLGALACTOSAMINYLTRANSFERASES” (GLYCOZYM APS, priority 2002, published 2008).
Entries after “also recorded” stand apart in the source; their conditions may differ.

How the values were obtained:
GalNAc-T4 lectin domain = molecular target: T1, GalNAc-T4 lectin domain (Homo sapiens, UniProt Q8N4A0); assay: Inhibition of GalNAc-T4 lectin domain (T4ld) binding to GalNAc-MUC1 glycopeptide, ELISA
T1 construct: comprises amino acid residues 405-578 of GALNT4; made in house; host or cells: baculovirus (pAcGP67-A), virus made in Sf9, protein produced in High Five insect cells
Description: (§1) Direct binding ELISA assay was developed as follows: Polystyrene microtiter plates (Maxisorb, Nunc, Denmark) were coated with peptides or enzymatically glycosylated glycopeptides in PBS overnight at 4° C. Plates were washed and blocked with 0.1% Tween20 and 0.2% BSA in PBS for 1 h at room temperature, followed by incubation with biotinylated proteins in PBS with 0.05% Tween20 for 2 h at room temperature. After four washes with PBS, plates were incubated with 1:2,000 dilution streptavidin-HRP (Sigma) in PBS for 30 min at room temperature and washed four times with PBS. Development was performed with 0.5 mg/ml o-phenylenediamine and 0.02% H2O2 at room temperature for 15 min, and reaction stopped by adding 100 μl/well of 0.5 N H2SO4. Competitive inhibition assays were done at end-point titers of GalNAc-transferase proteins with one hour preincubations with inhibitor.
(§2) In binding studies using lectins without biotinylation antibodies to the HIS-tag and the T7-tag, or in some experiments antibodies raised to GalNAc-T2 and -T4 enzymes were used to detect binding.
(§3) Inhibition experiments were used to further define the binding specificity of GalNAc-T2 and -T4 secreted soluble enzymes as well as lectin domains compared to Helix Pomatia lectin (Table IV).

GalNAc-T4 = GalNAc-T4 (Homo sapiens, UniProt Q8N4A0); conditions: mM concentrations; cited from earlier work
[1] = test system: MUC1 in CHO1d1D/MUC1F-clone2 cells; assay: MUC1 expression in cell lysates, immunoprecipitation and SDS-PAGE western blot (FIGS. 12-15); type: cell-based, Chinese Hamster; conditions: 2 mM, 48 hours, 5E5 blot
[2] = test system: MUC5AC in HT-29 MTX cells; assay: MUC5AC secretion, SDS-PAGE western blot of media with LUM5-1 (FIG. 17); type: cell-based, human; conditions: 5 mM, continuous culture, media at 14 days
Description: FIG. 17 illustrates SDS-PAGE Western analysis of MUC5AC secretion from HT29MTX cells using polyclonal anti-MUC5AC antibody LUM5-1. In order to evaluate GalNAcβ-benzyl as an inhibitor of mucin glycosylation and secretion we used the HT-29 metotrexate (MTX) cultured colon carcinoma cells of mucin secreting phenotype. HT-29 MTX cells have a goblet cell like phenotype with constitutive production of MUC5AC. Cells were continuously grown up to 21 days in the presence of 5 mM GalNAcα-benzyl, 5 mM GalNAcβ-benzyl, 5 mM GlcNAcα-benzyl and without inhibitor. […] In striking contrast, MUC5AC was not detected in the media from cells treated with GalNAcα-benzyl (Lane 3) or GalNAcβ-benzyl (Lane 4). Results shown are from media collected at 14 days.
(§4) In order to evaluate GalNAcβ-benzyl as an inhibitor of mucin glycosylation and secretion we used the cultured colon carcinoma cells of mucin secreting phenotypes: HT-29 metotrexate (MTX) cells selected from the HT-29 cell line by culture in the presence of MTX (kind gift from G. Huet, France). The HT-29 MTX cells were selected to yield a goblet cell like phenotype with constitutive production of MUC5AC. In order to ensure proper goblet cell differentiation the HT29MTX cell line were continuously grown up to 21 days in the presence of 5 mM GalNAcα-benzyl, 5 mM GalNAcβ-benzyl, 5 mM GlcNAcα-benzyl and without inhibitor using culture conditions as described in Hennebicq-Reig et al. (Permanent exposure of mucin-secreting HT-29 cells to benzyl-N-acetyl-alpha-D-galactosaminide induces abnormal O-glycosylation of mucins and inhibits constitutive and stimulated MUC5AC secretion. Biochem J. 1998; 334:283-95). […] Furthermore the viscosity of the media from cells with and without inhibitor was evaluated using viscosity micro-measurement.

[3] = molecular target: T2, secreted soluble GalNAc-T2 (Homo sapiens, UniProt Q10471); assay: Inhibition of secreted soluble GalNAc-T2 (sT2) binding to GalNAc-MUC1 glycopeptide, ELISA
T2 construct: 6xHis (N); thrombin cleavage site (N); T7 antibody site (N); made in house; host or cells: baculovirus (pAcGP67A), High Five insect cells
Description: as §1, §3

O-glycan processing = conditions: cited from earlier work
[4] = molecular target: human GalNAc-T4 (UDP-GalNAc:polypeptide N-acetylgalactosaminyltransferase T4) isolated truncated lectin domain (T4ld), HIS-tagged, amino acid residues 405-578 o (Homo sapiens, UniProt Q8N4A0); assay: biochemical; type: binding; conditions: isolated lectin domain
Excerpt: In order to minimize the size and functional complexity of GalNAc-transferase lectins to be used as probes for binding studies, we used multiple sequence alignment analysis to predict and design suitable expression constructs for isolated lectin domains (FIG. 2). In the present invention a direct binding assay was developed using isolated lectin domains of GalNAc-T4 and -T2 with minimal size (FIG. 5). […] The lectin Helix Pomatia (HP) was used as a control plant lectin with known binding specificity for […].
as §1, §2, §3
The ligand target used in this Example is a GalNAc-MUC1 glycopeptide produced enzymatically from synthetic peptides.

HT-29 MTX cells = assay: Viscosity of media from HT-29 MTX cells; type: cell-based, human; conditions: 5 mM; data not shown
Excerpt: as §4

Chain of human GalNAc-T4 (UDP-GalNAc:polypeptide N-acetylgalactosaminyltransferase T4) isolated truncated lectin domain (T4ld), HIS-tagged, amino acid residues 405-578 o (Q8N4A0 405-578): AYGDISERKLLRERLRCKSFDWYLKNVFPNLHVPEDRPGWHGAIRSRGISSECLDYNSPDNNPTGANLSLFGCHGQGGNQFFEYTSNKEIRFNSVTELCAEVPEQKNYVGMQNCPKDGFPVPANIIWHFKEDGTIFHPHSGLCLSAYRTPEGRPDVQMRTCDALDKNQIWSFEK
T1 sequence (Q8N4A0 405-578): as above
Chain of GalNAc-T4 (Q8N4A0 whole entry): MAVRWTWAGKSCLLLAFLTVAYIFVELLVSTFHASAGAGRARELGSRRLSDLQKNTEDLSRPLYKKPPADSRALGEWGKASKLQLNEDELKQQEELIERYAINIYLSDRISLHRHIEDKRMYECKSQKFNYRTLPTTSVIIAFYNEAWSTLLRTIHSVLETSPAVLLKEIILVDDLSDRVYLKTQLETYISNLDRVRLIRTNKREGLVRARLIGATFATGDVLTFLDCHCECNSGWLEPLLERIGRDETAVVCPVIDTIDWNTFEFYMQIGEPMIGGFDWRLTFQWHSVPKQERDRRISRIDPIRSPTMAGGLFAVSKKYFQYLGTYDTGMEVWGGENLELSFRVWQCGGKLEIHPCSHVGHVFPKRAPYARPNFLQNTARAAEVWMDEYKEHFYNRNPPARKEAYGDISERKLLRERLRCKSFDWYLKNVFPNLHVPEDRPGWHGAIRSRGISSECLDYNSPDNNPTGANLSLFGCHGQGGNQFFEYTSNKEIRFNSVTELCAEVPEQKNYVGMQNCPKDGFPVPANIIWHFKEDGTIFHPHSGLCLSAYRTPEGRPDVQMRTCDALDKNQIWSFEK
T2 sequence (Q10471 52-571 limits assumed): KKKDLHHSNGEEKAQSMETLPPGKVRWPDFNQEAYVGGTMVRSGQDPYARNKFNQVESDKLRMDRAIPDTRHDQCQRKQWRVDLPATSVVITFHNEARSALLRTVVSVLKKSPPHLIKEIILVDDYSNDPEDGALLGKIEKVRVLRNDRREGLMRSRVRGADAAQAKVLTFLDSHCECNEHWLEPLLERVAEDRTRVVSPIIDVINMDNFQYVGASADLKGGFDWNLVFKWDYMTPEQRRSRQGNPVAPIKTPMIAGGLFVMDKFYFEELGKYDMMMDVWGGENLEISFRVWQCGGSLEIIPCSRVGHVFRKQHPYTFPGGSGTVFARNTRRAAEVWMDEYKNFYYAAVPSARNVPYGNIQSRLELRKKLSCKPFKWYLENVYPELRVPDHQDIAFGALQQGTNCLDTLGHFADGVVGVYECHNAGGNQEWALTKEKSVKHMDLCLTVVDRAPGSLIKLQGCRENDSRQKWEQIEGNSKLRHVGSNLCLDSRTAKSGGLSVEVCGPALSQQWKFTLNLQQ

IC50 (GalNAc-T4 lectin domain)	IC50 [3]	inhibition of GalNAc-T4 lectin domain binding (in words) [4]	Compound	inhibition of lectin mediated GalNAc-glycopeptide substrate specificity of GalNAc-T4 (GalNAc-T4)	MUC1 expression [1]	MUC5AC in media (secretion) ([2]; listed as GalNAcα-benzyl)	inhibition of O-glycan processing / sialylation (O-glycan processing)	MUC5AC in media (secretion) [2]	viscosity of media (HT-29 MTX cells)
5 mM	15 mM	–	CC(=O)N[C@H]1[C@@H](OCc2ccccc2)O[C@H](CO)[C@H](O)[C@@H]1O [BzlαGalNAc, benzyl-N-acetyl-alpha-D-galactosaminide]	can inhibit	significant reduction	diminished secretion; also recorded: not detected	–	–	–
–	–	inhibited binding to the same degree	CC(=O)N[C@H]1[C@@H](OCc2ccccc2)O[C@H](CO)[C@H](O)[C@@H]1O [GalNAcα-benzyl, benzyl-N-acetyl-alpha-D-galactosaminide]	–	–	–	inhibit sialylation	–	–
–	–	inhibited binding to the same degree	CC(=O)N[C@H]1[C@H](OCc2ccccc2)O[C@H](CO)[C@H](O)[C@@H]1O [GalNAcβ-benzyl]	–	–	–	–	diminished secretion; also recorded: not detected	less viscous
